Source: patent US6696470B2, “Pyridylthiophene compounds” (Pfizer Inc., priority 1997, dated 2004)

| Structure (SMILES) | melting point |
| --- | --- |
| Cc1c(-c2ccncc2)sc(-c2ccncc2)c1C=NO.Cl.Cl | 258 to 261 °C (dec.) |
| CC(=O)c1cc(-c2ccncc2)sc1N(C)Cc1ccccc1.Cl | 199 to 202 °C |
| CC(=O)c1cc(-c2ccncc2)sc1Oc1cccc(Oc2ccc(F)cc2)c1.Cl | 251 to 253 °C |
| CCOC(=O)CCc1cc(-c2ccncc2)sc1-c1ccncc1.Cl.Cl | 205 to 208 °C (dec.) |
| Cc1c(-c2ccncc2)sc(-c2ccncc2)c1CNO.Cl.Cl.Cl | 219 to 222 °C (dec.) |
| CC(=O)c1c(CC(C)C)oc(-c2ccncc2)c1C.Cl | 171 to 174 °C |
| CC(=O)c1c(C)oc(-c2ccncc2)c1C [Example 1, 3-Acetyl-2,4-dimethyl-5-(4-pyridyl)furan] | 65 to 66.5 °C |
| Cc1c(-c2ccncc2)oc2c1C(=O)CCC2 [Example 2, 3-Methyl-4-oxo-2-(4-pyridyl)-4,5,6,7-tetrahydrobenzofuran] | 136 to 138 °C |
| CC(=O)c1c(-c2ccccc2)oc(-c2ccncc2)c1C [Example 3, 3-Acetyl-4-methyl-2-phenyl-5-(4-pyridyl)furan] | 108 to 110 °C |
| Cc1c(-c2ccncc2)oc2c1C(=O)C(C)(C)CC2 [Example 6, 4-Oxo-2-(4-pyridyl)-3,5,5-trimethyl-4,5,6,7-tetrahydrobenzofuran] | 133 to 134 °C |
| Cc1c(-c2ccncc2)oc2c1C(=O)CCC2(C)C [Example 7, 4-Oxo-2-(4-pyridyl)-3,7,7-trimethyl-4,5,6,7-tetrahydrobenzofuran] | 138 to 140 °C |
| Cc1c(-c2ccncc2)oc2c1C(=O)OC(C)C2 (stereo not shown) [Example 10, 6,7-Dihydro-3,6-dimethyl-2-(4-pyridyl)-furo[3,2-c]pyran-4-one] | 157 to 160 °C |
| CCc1c(-c2ccncc2)oc2c1C(=O)CCC2(C)C [Example 11, 3-Ethyl-7,7-dimethyl-4-oxo-2-(4-pyridyl)-4,5,6,7-tetrahydrobenzofuran] | 86 to 88 °C |
| CC1(C)CCC(=O)c2c1oc(-c1ccncc1)c2-c1ccccc1 [Example 12, 7,7-Dimethyl-3-phenyl-4-oxo-2-(4-pyridyl)4,5,6,7-tetrahydrobenzofuran] | 156 to 157 °C |
| CC(=O)c1sc(-c2ccncc2)c(C)c1-c1ccncc1 [Example 13, 2-Acetyl-4-methyl-3,5-di(4-pyridyl)thiophene] | 117 to 118 °C |
| CC(=O)c1sc(-c2ccncc2)c(-c2ccncc2)c1C [Example 14, 2-Acetyl-3-methyl-4,5-di(4-pyridyl)thiophene] | 140 to 142 °C |
| CC(=O)c1c(-c2ccncc2)sc(-c2ccncc2)c1C [Example 15, 3-Acetyl-4-methyl-2,5-di(4-pyridyl)thiophene] | 137 to 138 °C |
| O=C1CCCc2sc(-c3ccncc3)cc21 [Example 16, 4-Oxo-2-(4-pyridyl)-4,5,6,7-tetrahydro-benzo(b)thiophene] | 156 to 158 °C |
| CC(=O)c1c(-c2ccncc2)sc(Cl)c1C [Example 17, 3-Acetyl-5-chloro-4-methyl-2-(4-pyridyl)thiophene] | 60 to 61 °C |
| CC(=O)c1c(C)sc(-c2ccncc2)c1C [Example 18, 3-Acetyl-2,4-dimethyl-5-(4-pyridyl)thiophene] | 80 to 81 °C |
| CC(=O)c1c(-c2ccccc2)sc(-c2ccncc2)c1C [Example 19, 3-Acetyl-4-methyl-2-phenyl-5-(4-pyridyl)thiophene] | 111 to 112 °C |
| Cc1c(-c2ccncc2)sc2c1C(=O)CCC2 [Example 20, 3-Methyl-4-oxo-2-(4-pyridyl)4,5,6,7-tetrahydrobenzothiophene] | 129 to 130 °C |
| Cc1c(-c2ccncc2)sc(-c2ccncc2)c1C(C)O (stereo not shown) [Example 21, 2,5-Di(4-pyridyl)-3-(1-hydroxyethyl)-4-methylthiophene] | 155 to 157 °C |
| O=C1CCc2c(-c3ccncc3)sc(-c3ccncc3)c21 [Example 22, 1,3-Di(4-pyridyl)-5,6-dihydro-4H-cyclopenta(c)thiophen-4-one] | 168 to 170 °C |
| COC(=O)c1cc(-c2ccncc2)sc1-c1ccncc1 [Example 23, 2,5-Di(4-pyridyl)-3-methoxycarbonylthiophene] | 133 to 135 °C |
| CC(=O)c1cc(-c2ccncc2)sc1-c1ccncc1 [Example 24, 3-Acetyl-2,5-di(4-pyridyl)thiophene] | 117 to 119 °C |
| O=S(=O)(c1cc(-c2ccncc2)sc1-c1ccncc1)N1CCCC1 [Example 25, 2,5-Di(4-pyridyl)-3-(pyrrolidine-1-sulfonyl)thiophene] | 193 to 195 °C |
| CC(=O)c1csc(-c2ccncc2)c1C [Example 27, 4-Acetyl-3-methyl-2-(4-pyridyl)thiophene] | 87 to 87.5 °C |

| Structure (SMILES) | melting point |
| --- | --- |
| N#Cc1cc(-c2ccncc2)sc1-c1ccncc1 [Example 29, 3-Cyano-2,5-di(4-pyridyl)thiophene] | 205 to 207 °C |
| CC(=O)c1c(-c2ccc(F)cc2)sc(-c2ccncc2)c1C [Example 32, 3-Acetyl-2-(4-fluorophenyl)-4-methyl-5-(4-pyridyl)thiophene] | 116 to 118 °C |
| O=C(c1ccccc1)c1cc(-c2ccncc2)sc1-c1ccncc1 [Example 33, 3-Benzoyl-2,5-di(4-pyridyl)thiophene] | 168 to 170 °C |
| Cc1c(-c2ccncc2)sc(-c2ccncc2)c1C=O [Example 34, 2,5-Di(4-pyridyl)-4-methylthiophene-3-carbaldehyde] | 139 to 139.5 °C |
| CC(=O)c1c(-c2ccsc2)sc(-c2ccncc2)c1C [Example 35, 3-Acetyl-4-methyl-5-(4-pyridyl)-2-(3-thienyl)thiophene] | 98 to 100 °C |
| CSc1ccc(-c2sc(-c3ccncc3)c(C)c2C(C)=O)cc1 [Example 36, 3-Acetyl-4-methyl-5-(4-pyridyl)-2-(4-methylthiophenyl)thiophene] | 106 to 108 °C |
| CC(=O)c1cc(-c2ccncc2)sc1N1CCN(C)CC1 [Example 38, 3-Acetyl-2-(4-methylpiperazin-1-yl)-5-(4-pyridyl)thiophene] | 115 to 117 °C |
| O=C1CCCc2c(-c3ccncc3)sc(-c3ccncc3)c21 [Example 41, 1,3-Di(4-pyridyl)-4,5,6,7-tetrahydrobenzo(c)thiophen-4-one] | 157 to 160 °C |
| CC(=O)c1cc(-c2ccncc2)sc1Oc1ccccc1 [Example 42, 3-Acetyl-2-phenoxy-5-(4-pyridyl)thiophene] | 103 to 105 °C |
| CC(=O)c1sc2sc(-c3ccncc3)c(C)c2c1C [Example 43, 2-Acetyl-3,4-dimethyl-5-(4-pyridyl)thieno[2,3-b]thiophene] | 171 to 173 °C |
| O=C1CCCc2c(Cl)sc(-c3ccncc3)c21 [Example 45, 1-Chloro-3-(4-pyridyl)-4,5,6,7-tetrahydrobenzo(c)thiophen-4-one] | 93 to 95 °C |
| CSc1sc(-c2ccncc2)c2c1C(=O)CCC2 [Example 47, 3-Methylthio-1-(4-pyridyl)-4,5,6,7-tetrahydrobenzo(c)thiophen-4-one] | 115 to 116 °C |
| CN(C)C(=O)CCc1cc(-c2ccncc2)sc1-c1ccncc1 [Example 49, N,N-Dimethyl-3-[2,5-di-(4-pyridyl)3-thienyl]propionamide] | 166.5 to 167 °C |
| CNC(=O)c1cc(-c2ccncc2)sc1-c1ccncc1 [Example 52, N-Methyl-{2,5-di(4-pyridyl)thiophen-3-yl}carboxamide] | 197 to 199 °C |
| O=C1CCc2c(-c3ccncc3)sc(-c3ccccc3F)c21 [Example 53, 3-(2-Fluorophenyl)-1-(4-pyridyl)-5,6-dihydro-4H-cyclopenta(c)thiophene-4-one] | 133 to 135 °C |
| O=C1CCc2c(Cl)sc(-c3ccncc3)c21 [Example 54, 1-Chloro-3-(4-pyridyl)-5,6-dihydro-4H-cyclopenta(c)thiophene-4-one] | 163 to 165 °C |
| CC(=O)c1cc(-c2ccncc2)sc1Oc1ccccc1F [Example 56, 3-Acetyl-2-(2-fluorophenoxy)-5-(4-pyridyl)thiophene] | 93 to 96 °C |
| CC(=O)c1cc(-c2ccncc2)sc1Oc1cc(F)ccc1F [Example 57, 3-Acetyl-2-(2,5-difluorophenoxy)-5-(4-pyridyl)thiophene] | 119 to 121 °C |
| O=C1CCc2c(-c3ccncc3)sc(-c3ccc(F)cc3)c21 [Example 58, 3-(4-Fluorophenyl)-1-(4-pyridyl)-5,6-dihydro-4H-cyclopenta(c)thiophene-4-one] | 193 to 195 °C |
| NC(=O)c1cc(-c2ccncc2)sc1-c1ccncc1 [Example 59, 2,5-Di(4-pyridyl)-3-thiophenecarboxamide] | 240 to 242 °C |
| CC(C)OC(=O)c1cc(-c2ccncc2)sc1-c1ccncc1 [Example 60, 3-(Isopropyloxycarbonyl)-2,5-di(4-pyridyl)thiophene] | 139 to 142 °C |
| CC(=O)c1cc(-c2ccncc2)sc1Oc1ccc(F)cc1 [Example 62, 3-Acetyl-2-(4-fluorophenoxy)-5-(4-pyridyl)thiophene] | 147 to 149 °C |
| O=C1CCc2c(-c3ccncc3)sc(-c3cccnc3)c21 [Example 63, 1-(4-Pyridyl)-3-(3-pyridyl)-5,6-dihydro-4H-cyclopenta(c)thiophene-4-one] | 214 to 216 °C |
| Cc1c(-c2ccncc2)sc(-c2ccncc2)c1CF [Example 65, 2,5-Di(4-pyridyl)-3-fluoromethyl-4-methylthiophene] | 148 to 148.5 °C |
| O=C1CCc2c(-c3ccncc3)sc(-c3ccc(C(F)(F)F)cc3)c21 [Example 66, 1-(4-Pyridyl)-3-(4-trifluoromethylphenyl)-5,6-dihydro-4H-cyclopenta(c)thiophene-4-one] | 158 to 160 °C |
| O=C1CCc2c(-c3ccc(F)cc3)sc(-c3ccncc3)c21 [Example 67, 1-(4-Fluorophenyl)-3-(4-pyridyl)-5,6-dihydro-4H-cyclopenta(c)thiophene-4-one] | 155 to 157 °C |
| NC(=O)CCc1cc(-c2ccncc2)sc1-c1ccncc1 [Example 70, 3-[2,5-di-(4-pyridyl)3-thienyl]propionamide] | 196 to 196.5 °C |
